Source: article PMC5571211 (Scientific Reports, 2017)
Read-outs that look alike come from different tables or passages of the source.

Columns and labels:
[1] = tested on: 5-LOX product formation (FLAP) in human monocytes; assay: 5-LOX product formation in intact human monocytes stimulated with Ca2+-ionophore A23187; format: cell-based; conditions: Monocyte, 5 h, read-out: IC50, formation of LTB4 and its isomers and of 5-H(p)ETE (5-LOX product formation)
Procedure: Peripheral blood (University Hospital Jena, Germany) was collected from fasted healthy adult donors that were informed about the aim of the study and gave written consent. The protocols for experiments with neutrophils or monocytes were approved by the ethical commission of the Friedrich-Schiller-University Jena (approval number 4292-12/14). All methods were performed in accordance with the relevant guidelines and regulations. Leukocyte concentrates were obtained by centrifugation (4000 × g, 20 min, 20 °C) of heparinized blood preparations. Neutrophils and monocytes were immediately isolated as described before. In brief, leukocyte concentrates were subjected to dextran sedimentation and centrifuged on lymphocyte separation medium (LSM 1077, PAA, Coelbe, Germany). For isolation of pelleted neutrophils, remaining erythrocytes were removed by hypotonic lysis, washed twice with ice-cold PBS and resuspended in medium to a cell density described for the respective experiments. […]
Human recombinant 5-LOX was expressed in E.coli BL21 transformed with pT3-5-LOX plasmid at 30 °C overnight as described before. […] After elution with methanol, samples were analyzed by RP-HPLC using a C-18 Radial-PAK column (Waters, Eschborn, Germany). […]

[2] = tested on: zymosan-induced peritonitis; assay: Zymosan-induced peritonitis mouse model; format: in vivo; conditions: for myeloperoxidase activity / myeloperoxidase activity, % of vehicle control / leukocyte recruitment: 4 h after zymosan; for vascular permeability, % of vehicle control: 30 min after zymosan
Procedure: The animal studies are reported in accordance with the ARRIVE guidelines for reporting animal research. Male CD-1 mice (33–39 g, 8–9 weeks, Charles River Laboratories, Calco, Italy) were housed in a controlled environment (21 ± 2 °C) and provided with standard rodent chow and water ad libitum. Mice received a standard diet containing 5.7% fat, 18.9% protein and 57.3% carbohydrate (Global Diet 2018, ENVIGO, Italy). The fatty acid composition was according to Matias et al.[67].
Prior to experiments, all mice were allowed to acclimate for 5 days and kept at 12 h light–dark schedule, in which experiments were performed during the light phase. Animal care was in compliance with Italian regulations on protection of animals used for experimental and other scientific purpose (Ministerial Decree 116/92) and with the European Economic Community regulations (Official Journal of E.C. L 358/1 12/18/1986). Animal studies were approved by the local ethical committee of the University of Naples Federico II on 27 February 2014 (approval number 2014/18760). […] Zymosan (Sigma, Milan, Italy) was prepared and injected i.p. as a final suspension (2 mg/mL) in 0.9% saline solution after boiling, centrifugation and sonication. Peritoneal lavage (3 mL of cold PBS) was performed after CO2-euthanasia at indicated time points, followed by 60 sec of gentle manual massage. Two mL of exudates were collected and infiltrated cells were determined using a Burker chamber and vital trypan blue staining. Pelleted samples (18,000 × g, 5 min, 4 °C) were frozen (−80 °C) and assayed for myeloperoxidase (MPO) activity (pellet) or LTC4 and LTB4 formation (supernatant), respectively.
MPO of neutrophils was examined as follows: pellets from exudates were resuspended in PBS (50 mM, pH 6) containing 0.5% hexadecyltrimethyl-ammonium bromide and sonicated, followed by 3 freeze-thawing cycles and a final sonication. Supernatants of centrifuged samples (18,000 × g, 30 min) were added to a 96-well plate and reactions were initiated by addition of PBS (50 mM, pH 6) containing o-dianisidine (0.167 mg/mL) and hydrogen peroxide (0.0005%). Absorbance was monitored in the kinetic mode (Biorad Imark microplate) and levels of MPO were determined using a calibration curve with human neutrophils as reference standard. MPO levels were expressed as units MPO per mouse. LTC4 and LTB4 formation within the supernatants were determined by EIA (Enzo Life Sciences International Inc., Lörrach, Germany) according to manufacturer’s protocol.
Vascular permeability was assessed according to a previous report. Briefly, 0.3 mL of 0.9% saline solution supplemented with Evans blue dye (40 mg/kg) was injected intravenously (i.v.) into the caudal vein followed by immediate peritonitis induction (using zymosan). After 30 min, peritoneal lavage exudates of CO2-euthanized were collected as described above. Absorbance of the centrifuged supernatants (3,000 × g, 5 min) was measured at 650 nm (Beckman Coulter DU730).

[3] = tested on: AA release (cPLA2) in neutrophils; assay: [3H]-labeled arachidonic acid release in neutrophils; format: cell-based, human; conditions: [3H]AA-pre-labelled neutrophils; diflapolin 1 µM, RSC-3388 10 µM
Procedure: Freshly isolated human neutrophils were resuspended in RPMI 1640 medium to a final cell density of 10^7 cells/mL and incubated with 0.5 µCi/mL of [^3H]-labeled arachidonic acid ([^3H]-AA), corresponding to a concentration of 5 nM of the fatty acid, for 2 hrs (37 °C, 5% CO2). Cells were washed twice to remove unincorporated [^3H]-AA and resuspended in PBS containing glucose (0.1%), fatty acid-free BSA (2 mg/mL) and CaCl2 (1 mM). […] The reaction was stopped on ice and cells were centrifuged at 1,200 rpm (10 min, 4 °C). The collected supernatants were combined with 2 mL of liquid scintillation counting solution (Rotiszint eco plus, Carl Roth, Karlsruhe, Germany) and assayed for radioactivity by scintillation counting (Micro Beta Trilux, Perkin Elmer, Waltham, MA).

[4] = mice, 1 mg/kg i.p. 30 min before zymosan

Row | Structure (SMILES) | IC50 ([1]; intact human monocytes, Ca2+-ionophore A23187, no AA supplementation) | LTB4 peritoneal levels [2, 4] | LTC4 peritoneal levels [2, 4] | myeloperoxidase activity ([2]; mice, 1 mg/kg i.p.) | myeloperoxidase activity, % of vehicle control ([2]; mice, 1 mg/kg i.p.) | vascular permeability, % of vehicle control ([2]; mice, 3 mg/kg i.p.) | leukocyte recruitment ([2]; mice, MK886 i.p.) | IC50 ([1]; Homo sapiens) | release of AA upon A23187-stimulation [3] | vascular permeability, % of vehicle control ([2]; mice, 10 mg/kg i.p.) | myeloperoxidase activity ([2]; mice, 10 mg/kg i.p.) | myeloperoxidase activity, % of vehicle control ([2]; mice, 10 mg/kg i.p.) | LTC4 peritoneal levels ([2]; mice, 1, 3 and 10 mg/kg i.p. 30 min before zymosan, analysed 30 min after zymosan) | LTB4 peritoneal levels ([2]; mice, 1, 3 and 10 mg/kg i.p. 30 min before zymosan, analysed 4 h after zymosan) | leukocyte recruitment ([2]; mice, 1, 3 and 10 mg/kg i.p., dose-dependent)
1 | CC(C)c1ccc2c(c1)c(SC(C)(C)C)c(CC(C)(C)C(=O)O)n2Cc1ccc(Cl)cc1 [MK886, 3-[1-(4-chlorobenzyl)-3-t-butyl-thio-5-isopropylindol-2-yl]-2,2 - dimethylpropanoic acid] | ~3 nM | comparable to the effect of MK886 | comparable to the effect of MK886 | 0.72 ± 0.13 U/mL | 58.5 ± 10.6 % of vehicle control | 48.6 ± 3.2 % of vehicle control | block of leukocyte recruitment | – | – | – | – | – | – | – | –
2 | Cc1cc(OCc2nc3ccccc3s2)ccc1NC(=O)Nc1ccc(Cl)c(Cl)c1 [diflapolin, N-[4-(benzothiazol-2-ylmethoxy)-2-methylphenyl]-N′-(3,4-dichlorophenyl)urea] | – | – | – | – | – | – | – | 30 nM | did not inhibit | 55.7 ± 14.4 % of vehicle control | 0.65 ± 0.15 U/mL | 52.8 ± 12.2 % of vehicle control | significant reduction | significant reduction | block of leukocyte recruitment
